Values after ≈ are worked out from the molar mass of the structure shown. Read-outs that look alike come from different tables or passages of the source. Positions of bridges follow the written chain, without caps; N, C: chain ends. Non-standard residues stand in square brackets, D forms with d. Residues, ends and D or L forms follow the SMILES beside them. *: point of attachment. Palmitoyl = CCCCCCCCCCCCCCCC(=O)*; Myristoyl = CCCCCCCCCCCCCC(=O)*; Lauroyl = CCCCCCCCCCCC(=O)*
Key:
[1] = Cytotoxicity, XTT viability, non-cancer cells; type: cell-based; details: mouse, non-cancer cell line, 24 h incubation, read-out: LC50, 3T3
Procedure: (§1) Prostate cancer cell lines (CL1 and 22RV1; ATCC, USA) were grown in RPMI-1640 supplemented with 10% FCS (Biological Industries, Beit Haemek, Israel). N1H-3T3 mouse fibroblast cell line (ATCC, USA) was grown in DMEM supplemented with 10% bovine serum. To test cytotoxicity against the cancer cells, aliquots of medium containing 1×10^4 cells were distributed into a 96-well plate (Falcon). After one day, the media were replaced with 90 μl of fresh media and 10 μl of a solution containing different concentrations of the peptides. The plate was then incubated for 24 h before adding to each well 50 μl of XTT reaction solution (Biological Industries, Beit Haemek, Israel); viability was determined as previously described (Papo et al., (2003) J. Biol. Chem. 278:21018-23). The LC50 (concentration at which 50% of the cells die) for each peptide was obtained from the dose-dependent cell viability curves.

[2] = tested on: Prostate cancer cell line 22RV1; assay: Cytotoxicity, XTT viability; type: cell-based, human; details: 24 h incubation, read-out: LC50, Prostate cancer 22RV1
Procedure: as §1

[3] = tested on: Prostate cancer cell line CL1; assay: Cytotoxicity, XTT viability; type: cell-based, human; details: 24 h incubation, read-out: LC50, Prostate cancer CL1
Procedure: as §1

[4] = tested on: Aspergillus flavus ATCC 9643; type: cell-based; details: ATCC 9643, pH 7.4
[5] = tested on: Candida albicans ATCC 10231; assay: microbe, parasite or virus in culture; type: cell-based
Summary of the method: (§2)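 In this assay, each strain, prepared at 1×10^4 CFU/ml before mixing, met serial twofold peptide dilutions in RPMI 1640 buffered with 0.165 M MOPS. Unless noted, pH was 7.4; a pH 5.5 condition was also run. After 24-48 h incubation (35 °C, agitated), wells were scored at 620 nm for total inhibition.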

[6] = tested on: Cryptococcus neoformans ATCC 66031; assay: microbe, parasite or virus in culture; type: cell-based
Summary of the method: as §2

[7] = tested on: Aspergillus fumigatus ATCC 26430; assay: microbe, parasite or virus in culture; type: cell-based
[8] = tested on: Aspergillus niger ATCC 9642; type: cell-based; details: ATCC 9642, pH 7.4
Summary of the method: as §2

B. subtilis ATCC 6051 = type: cell-based; details: ATCC 6051, pH 7.4
[9] = tested on: Cryptococcus neoformans ATCC MYA-422; assay: microbe, parasite or virus in culture; type: cell-based; details: ATCC MYA-422, pH 7.4
[10] = tested on: methicilin-resistant Staphylococcus aureus (MRSA) ATCC 700698; type: cell-based; details: ATCC 700698, pH 7.4
Summary of the method: (§3)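 Values are MICs from microdilution in LB (pH 7.4 unless noted) with bacteria at 1×10^6 CFU/ml before 1:1 mixing, read at 600 nm after 18-20 h, 37° C.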

[11] = tested on: Enterobacter cloacae ATCC 49141; type: cell-based; details: ATCC 49141, pH 7.4
Summary of the method: as §3

[12] = tested on: Staphylococcus aureus ATCC 6538P; type: cell-based
Summary of the method: as §3

[13] = tested on: Escherichia coli ATCC 25922; type: cell-based
Summary of the method: as §3

[14] = tested on: Pseudomonas aeruginosa ATCC 27853; type: cell-based
Summary of the method: as §3

[15] = tested on: Enterococcus faecalis ATCC 29212; type: cell-based; details: ATCC 29212, pH 7.4
Summary of the method: as §3

[16] = tested on: Acinetobacter baumannii ATCC 19606; type: cell-based
Summary of the method: as §3

[17] = tested on: vancomycin-resistant Enterococcus faecium (VRE) ATCC 700221; type: cell-based
Summary of the method: as §3

in vitro [18] = type: in vitro ADME, bovine; details: isolated enzyme trypsin, pH 7.3
Procedure: (§4) Equal amounts of the lipopeptides were dissolved in PBS (35 mM phosphate buffer/0.15 M NaCl, pH 7.3) to yield a final concentration of 140 μM to which 25 μM of either pepsin (from porcine stomach mucosa, Sigma), trypsin (from bovine pancreas, Sigma), or elastase (from human leukocytes, Sigma) were added. The samples were incubated under agitation for 30 min at 37° C. After addition of the appropriate protease inhibitor to stop the reaction, aliquots of the proteolytic digest were injected to C18 HPLC column and the amounts of the intact lipopeptide were evaluated using their absorbance at 215 nm.

[19] = Resistance to proteolytic digestion, intact lipopeptide by HPLC; type: in vitro ADME; details: human, elastase from human leukocytes; 140 μM lipopeptide, 25 μM protease, 30 min at 37° C., PBS pH 7.3
Procedure: as §4

in vitro [20] = type: in vitro ADME, porcine; details: pig, isolated enzyme pepsin, pH 7.3
Procedure: as §4

E. coli D21 = type: cell-based

CC(C)C[C@@H](N)C(=O)N[C@@H](CCCNC(=N)N)C(=O)N[C@@H](CCCNC(=N)N)C(=O)N[C@H](CC(C)C)C(=O)N[C@H](CC(C)C)C(=O)N[C@@H](CCCNC(=N)N)C(=O)N[C@@H](CCCNC(=N)N)C(=O)N[C@H](CC(C)C)C(=O)N[C@H](CC(C)C)C(=O)N[C@@H](CCCNC(=N)N)C(=O)N[C@@H](CCCNC(=N)N)C(=O)N[C@H](CC(C)C)C(N)=O [DL6R6, LRRLLRRLLRRL, reference compound] (H-[dL]RR[dL][dL]RR[dL][dL]RR[dL]-NH2; N-terminus assumed)
CC50 at 24 h [1]: > 100 µM
CC50 [2]: 50 µM
CC50 [3]: > 100 µM

CCCCCCCCCCCCCCCC(=O)N[C@H](CCCCN)C(=O)NCC(=O)NCC(=O)NCC(=O)N[C@H](CCCCN)C(=O)NCC(=O)NCC(=O)NCC(=O)N[C@H](CCCCN)C(=O)NCC(=O)NCC(=O)N[C@H](CCCCN)C(N)=O [lipopeptide 2, (CH3—(CH2)14—CO—)-D-Lys-Gly-Gly-Gly-D-Lys-Gly-Gly-Gly-D-Lys-Gly-Gly-D-Lys-NH2] (Palmitoyl-[dK]GGG[dK]GGG[dK]GG[dK]-NH2)
Minimal Inhibitory Concentration, Aspergillus flavus (ATCC 9643) [4]: 100 µM
Minimal Inhibitory Concentration, C. albicans ATCC 10231 ([5]; ATCC 10231, pH 7.4): 3.125 µM
MIC ([5]; ATCC 10231, pH 7.4, read-out: Minimal Inhibitory Concentration, Candida Albicans (ATCC 10231)): 3.125 µM (≈ 3.83 µg/mL)
Minimal Inhibitory Concentration, C. neoformans ATCC 66031 ([6]; ATCC 66031, pH 7.4): 6.25 µM
Minimal Inhibitory Concentration, A. fumigatus ATCC 26430 ([7]; ATCC 26430, pH 7.4): 12.5 µM
Minimal Inhibitory Concentration, Aspergillus fumigatus (ATCC 26430) ([7]; ATCC 26430, pH 7.4): 12.5 µM
Minimal Inhibitory Concentration, Aspergillus niger (ATCC 9642) [8]: 6.25 µM
Minimal Inhibitory Concentration, B. subtilis (ATCC 6051) (B. subtilis ATCC 6051): 3.125 µM
Minimal Inhibitory Concentration, Cryptococcus neoformans (ATCC MYA-422) [9]: 6.25 µM
Minimal Inhibitory Concentration, S. aureus (MRSA) [10]: 12.5 µM
Minimal Inhibitory Concentration, E. cloacae [11]: 25 µM
Minimal Inhibitory Concentration, S. aureus ([12]; ATCC 6538, pH 7.4): 12.5 µM
Minimal Inhibitory Concentration, S. aureus ATCC 6538P ([12]; ATCC 6538, pH 7.4): 12.5 µM
Minimal Inhibitory Concentration, E. coli ([13]; ATCC 25922, pH 7.4): 25 µM
Minimal Inhibitory Concentration, E. coli (ATCC 25922) ([13]; ATCC 25922, pH 7.4): 25 µM
Minimal Inhibitory Concentration, P. Aeruginosa ([14]; ATCC 27853, pH 7.4): 6.25 µM
Minimal Inhibitory Concentration, P. aeruginosa ATCC 27853 ([14]; ATCC 27853, pH 7.4): 6.25 µM
Minimal Inhibitory Concentration, E. faecalis [15]: 12.5 µM
Minimal Inhibitory Concentration, A. Baumaannii ([16]; ATCC 19606, pH 7.4): 25 µM
Minimal Inhibitory Concentration, A. baumannii ATCC 19606 ([16]; ATCC 19606, pH 7.4): 25 µM
Minimal Inhibitory Concentration, E. faecium (VRE) ([17]; ATCC 700221, pH 7.4): 3.125 µM
activity against VRE ([17]; in words, summary of Table 4): highly active

CCCCCCCCCCCCCC(=O)N[C@H]1CSSC[C@@H](C(N)=O)NC(=O)[C@@H](CCCCN)NC(=O)CNC(=O)CNC(=O)[C@@H](CCCCN)NC(=O)CNC(=O)CNC(=O)CNC(=O)[C@@H](CCCCN)NC(=O)CNC(=O)CNC(=O)CNC(=O)[C@@H](CCCCN)NC1=O [lipopeptide 16] (Myristoyl-C[dK]GGG[dK]GGG[dK]GG[dK]C-NH2; disulfide 1-14)
metabolised at 0.5 h, 140 μM (in vitro [18]): 0%
metabolised at 0.5 h, 140 μM [19]: 0%
metabolised at 0.5 h, 140 μM (in vitro [20]): 0%

CCCCCCCCCCCCCC(=O)N[C@H]1CSSC[C@@H](C(N)=O)NC(=O)[C@H](CCCCN)NC(=O)CNC(=O)CNC(=O)[C@H](CCCCN)NC(=O)CNC(=O)CNC(=O)CNC(=O)[C@H](CCCCN)NC(=O)CNC(=O)CNC(=O)CNC(=O)[C@H](CCCCN)NC1=O [lipopeptide 19] (Myristoyl-CKGGGKGGGKGGKC-NH2; disulfide 1-14)
metabolised at 0.5 h, 140 μM (in vitro [18]): 100%
metabolised at 0.5 h, 140 μM [19]: 100%
metabolised at 0.5 h, 140 μM (in vitro [20]): 100%

CCCCCCCCCCCC(=O)N[C@H](CC(C)C)C(=O)N[C@@H](CCCNC(=N)N)C(=O)N[C@@H](CCCNC(=N)N)C(=O)N[C@H](CC(C)C)C(=O)N[C@H](CC(C)C)C(=O)N[C@@H](CCCNC(=N)N)C(=O)N[C@@H](CCCNC(=N)N)C(=O)N[C@H](CC(C)C)C(=O)N[C@H](CC(C)C)C(=O)N[C@@H](CCCNC(=N)N)C(=O)N[C@@H](CCCNC(=N)N)C(=O)N[C@H](CC(C)C)C(N)=O [lipopeptide 25, (CH3-(CH2)10-CO-)-D-Leu-Arg-Arg-D-Leu-D-Leu-Arg-Arg-D-Leu-D-Leu-Arg-Arg-D-Leu-NH2] (Lauroyl-[dL]RR[dL][dL]RR[dL][dL]RR[dL]-NH2)
CC50 at 24 h [1]: 100 µM
MIC ([5]; ATCC 10231, pH 5.5, read-out: Minimal inhibitory concentrations, C. Albicans With serum): 100 µM (≈ 182 µg/mL)
MIC ([5]; ATCC 10231, pH 5.5, read-out: Minimal inhibitory concentrations, C. Albicans Without serum): 12.5 µM (≈ 22.7 µg/mL)
MIC ([5]; ATCC 10231, pH 7.4, read-out: Minimal inhibitory concentrations, C. Albicans With serum): 100 µM (≈ 182 µg/mL)
MIC ([5]; ATCC 10231, pH 7.4, read-out: Minimal inhibitory concentrations, C. Albicans Without serum): 3.125 µM (≈ 5.67 µg/mL)
MIC ([6]; ATCC 66031, pH 5.5, read-out: Minimal inhibitory concentrations, C. Neofor. With serum): 2.34 µM (≈ 4.25 µg/mL)
MIC ([6]; ATCC 66031, pH 5.5, read-out: Minimal inhibitory concentrations, C. Neofor. Without serum): <0.78 µM
MIC ([6]; ATCC 66031, pH 7.4, read-out: Minimal inhibitory concentrations, C. Neofor. With serum): <0.78 µM
MIC ([6]; ATCC 66031, pH 7.4, read-out: Minimal inhibitory concentrations, C. Neofor. Without serum): <0.78 µM
MIC ([7]; ATCC 26430, pH 5.5, read-out: Minimal inhibitory concentrations, A. Fumig. With serum): 50 µM (≈ 90.8 µg/mL)
MIC ([7]; ATCC 26430, pH 5.5, read-out: Minimal inhibitory concentrations, A. Fumig. Without serum): 6.25 µM (≈ 11.3 µg/mL)
MIC ([7]; ATCC 26430, pH 7.4, read-out: Minimal inhibitory concentrations, A. Fumig. With serum): 50 µM (≈ 90.8 µg/mL)
MIC ([7]; ATCC 26430, pH 7.4, read-out: Minimal inhibitory concentrations, A. Fumig. Without serum): 3.125 µM (≈ 5.67 µg/mL)
Minimal inhibitory concentrations, E. Coli D21 (E. coli D21; D21, pH 5.5): 50 µM (≈ 90.8 µg/mL)
Minimal inhibitory concentrations, E. Coli D21 (E. coli D21; D21, pH 7.4): 50 µM (≈ 90.8 µg/mL)
CC50 [2]: 3.12 µM
CC50 [3]: 3.12 µM
Minimal inhibitory concentrations, S. aureus II ATCC 6538P ([12]; ATCC 6538, pH 5.5): 50 µM (≈ 90.8 µg/mL)
Minimal inhibitory concentrations, S. aureus II ATCC 6538P ([12]; ATCC 6538, pH 7.4): 12.5 µM (≈ 22.7 µg/mL)
Minimal inhibitory concentrations, E. Coli ATCC 25922 ([13]; ATCC 25922, pH 5.5): 100 µM (≈ 182 µg/mL)
Minimal inhibitory concentrations, E. Coli ATCC 25922 ([13]; ATCC 25922, pH 7.4): >100 µM
Minimal inhibitory concentrations, P. Aeruginosa ATCC 27853 ([14]; ATCC 27853, pH 5.5): 50 µM (≈ 90.8 µg/mL)
Minimal inhibitory concentrations, P. Aeruginosa ATCC 27853 ([14]; ATCC 27853, pH 7.4): 50 µM (≈ 90.8 µg/mL)
Minimal inhibitory concentrations, A. baumannii ATCC 19606 ([16]; ATCC 19606, pH 5.5): 75 µM (≈ 136 µg/mL)
Minimal inhibitory concentrations, A. baumannii ATCC 19606 ([16]; ATCC 19606, pH 7.4): >100 µM

— US8445636B2, “Antimicrobial and anticancer lipopeptides” (Yeda Research & Development Co. Ltd., priority 2003, dated 2013)
